In publication PMC8402547, “In Vitro and In Vivo Analysis of Ochratoxin A-Derived Glucuronides and Mercapturic Acids as Biomarkers of Exposure” (Toxins, 2021):
Read-outs that look alike come from different tables or passages of the source.

Legend:
[1] = Direct LC–MS/MS analysis of OTA metabolites in urine of OTA-treated rats; format: in vivo, male F344/N rats; settings: OTA up to 2 mg/kg bw, negative ionization mode
Method: Archived urine samples from previous repeated dose oral toxicity studies on OTA in male F344/N rats were used. The studies were performed according to national animal welfare regulations after authorization by the local authorities (Regierung von Unterfranken, AZ 621-2531.01-9/98 and AZ 54-2531.01-59/05).
(§1) 14-day study: Male F344 rats (170–190 g) were purchased from Charles-River Laboratories, Sulzfeld, Germany. Animals had free access to water and standard diet (Altromin) and were kept under standard conditions (12 h day/night cycle, temperature 21–23 °C, humidity 45–55%). Rats were transferred to metabolic cages (Tecniplast Metabolic Cage—Rats Over 300 g; Tecniplast, Italy) for collection of urine 3 days prior to dosing. Animals were administered OTA dissolved in corn oil by oral gavage at 0, 0.25, 0.5, 1.0 and 2.0 mg/kg bw for 2 weeks (5 days per week). Urine was collected every 12 h on day 1 of treatment and every 24 h thereafter on ice, aliquoted and stored at −20 °C until further analysis.
(§2) 90-day study: Male F344/N rats (6–7 weeks old) were purchased from Harlan-Winkelmann, Borchen, Germany. Animals were housed in groups of 5 in Macrolon type-4 cages and allowed free access to pelleted standard rat maintenance diet (SSNIFF, Soest, Germany) and tap water. After a week of acclimatization, rats (n = 5/dose) were exposed to OTA dissolved in corn oil by oral gavage at doses of 0, 21, 70 or 210 µg/kg bw for 2, 4 or 13 weeks (5 days per week). For urine collection, animals were transferred into metabolic cages (Tecniplast Metabolic Cage—Rats Over 300 g; Tecniplast, Italy) 48 h prior to necropsy and fasted for 20 h but allowed free access to tap water. Urine was collected for 24 h on ice, aliquoted and stored at −20 °C until further analysis.
Urine samples were diluted with acetonitrile (2:1), vortexed and cleared via centrifugation (4 °C, 15 min., 2000× g) to precipitate proteins. Of the resulting supernatant, 10 µL were injected into the LC–MS system and analyzed using the method described below.
(§3) LC–MS/MS analyses were performed on an Agilent 1100 series LC coupled to an API 2000/Q-Trap mass spectrometer (Applied Biosystems/MDS Sciex, Concord, Canada). Samples were injected into the LC–MS/MS system through an Agilent 1100 series autosampler. Separations were carried out on a ReproSil-Pur C18 AQ column (2 mm × 150 mm, 5 µm; Dr. Maisch; Ammerbuch, Germany). Gradient elution of OTA-derived metabolites was carried out with water + 0.1% formic acid (solvent A) and acetonitrile (solvent B). Initially, solvent A was held isocratic for 5 min at 100%, followed by a linear gradient to 95% B in 5 min. These conditions were held for further 5 min. Within 1 min, the gradient decreased linearly to 0% B and remained at initial conditions until the end of analysis (30 min). A flow rate of 0.2 mL/min was used. For each run, 10 µL of the respective sample were injected by the autosampler.
(§4) The API 2000/Q-Trap mass spectrometer was operated with a Turbo Ion Spray source in negative ion mode with a voltage of −4000 V. Spectral data were recorded with N2 as the heater gas at 450 °C and as the collision gas (CAD = −2) in multiple reaction monitoring mode (MRM).
In addition to MRM, constant neutral loss of 129 amu in the negative ion mode based on the characteristic fragmentation pattern of mercapturic acids was used to screen for N-acetyl-cysteine conjugates of OTA. Furthermore, constant neutral loss of 176 amu in positive ion mode based on the fragmentation pattern of glucuronic acid conjugates was used to screen for OTA glucuronides.

[2] = 0.5 mg/kg bw oral, within 96 h, cited from earlier work
[3] = 14-day rat study: 24 h urinary excretion of OTA and OTA-glucuronides, LC–MS/MS with and without β-glucuronidase hydrolysis; format: in vivo, male F344/N rats; settings: for Urinary excretion / Urinary excretion, fraction of the administered dose: 2 mg OTA/kg bw oral, 5 d/week; for Urinary excretion, fraction of the administered dose: 24 h urine
Method: as §1
(§5) Duplicate analysis of OTA in urine samples with and without enzymatic hydrolysis allowed for indirect measurement of glucuronides, whereby an increase in the concentration of OTA in the samples incubated with enzyme compared to those without enzymatic treatment reflected the hydrolyzed glucuronides. Aliquots of rat urine (125 µL) were mixed with 0.1 M sodium acetate (104 µL; pH = 5). For analysis of the concentration of OTA without enzymatic hydrolysis, an aliquot (30 µL) of this solution was removed and mixed with 7 µL acetonitrile. The remaining solution (199 µL) was incubated with β-glucuronidase (1.65 µL; <100,000 units/mL) at 37 °C for 1 h. Hydrolysis was terminated by addition of ice-cold acetonitrile (50 µL) and centrifugation (15 min., 4 °C, 20,000× g). To 98 µL supernatant, 2 µL isotopically labeled ^13C20-OTA in acetonitrile (14-day study: 5 µg/mL; 90-day study: 1 µg/mL) was added as an internal standard. For analysis, 10 µL of each sample were injected into the LC–MS system and analyzed using the method described below. A calibration curve was prepared from solutions of OTA and the isotopically labeled ^13C20-OTA internal standard in acetonitrile and subsequent dilution with urine of a control animal.
as §3, §4

[4] = human urine samples; cited from earlier work
[5] = 90-day rat study: 24 h urinary excretion of OTA and OTA-glucuronides, LC–MS/MS with and without β-glucuronidase hydrolysis; format: in vivo, male F344/N rats; settings: for Urinary excretion, fraction of the administered dose / Urinary excretion: 5 days/week; for Urinary excretion, fraction of the administered dose: 24 h urine
Method: as §2, §5, §3, §4

[6] = 4 weeks treatment, OTA 210 μg/kg bw per day oral, n = 1

C[C@@H]1Cc2c(Cl)cc(C(=O)N[C@@H](Cc3ccccc3)C(=O)O)c(O)c2C(=O)O1 [OTA, Ochratoxin A]
Detection in urine of OTA-treated rats by direct LC–MS/MS (MRM) [1]: consistently found | Fraction of orally administered dose excreted in urine ([2]; female rats): 5.2% | Fraction of orally administered dose excreted in urine ([2]; male rats): 2.1% | Urinary excretion ([3]; animal 2, day 3 of treatment): 15.3 nmol/24 h | Urinary excretion, fraction of the administered dose ([3]; animal 2, day 3 of treatment): 1.8% | Urinary excretion ([3]; animal 2, day 5 of treatment): 40.3 nmol/24 h | Urinary excretion, fraction of the administered dose ([3]; animal 2, day 5 of treatment): 4.7% | Urinary excretion ([3]; animal 2, day 7 of treatment): 35.4 nmol/24 h | Urinary excretion, fraction of the administered dose ([3]; animal 2, day 7 of treatment): 4.1% | Urinary excretion ([3]; animal 2, day 9 of treatment): 32.9 nmol/24 h | Urinary excretion, fraction of the administered dose ([3]; animal 2, day 9 of treatment): 3.7% | Urinary excretion ([3]; animal 2, day 11 of treatment): 40.9 nmol/24 h | Urinary excretion, fraction of the administered dose ([3]; animal 2, day 11 of treatment): 4.6% | Urinary excretion ([3]; animal 2, day 13 of treatment): 21.0 nmol/24 h | Urinary excretion, fraction of the administered dose ([3]; animal 2, day 13 of treatment): 2.2% | Urinary excretion ([3]; animal 3, day 3 of treatment): 4.4 nmol/24 h | Urinary excretion, fraction of the administered dose ([3]; animal 3, day 3 of treatment): 0.5% | Urinary excretion ([3]; animal 3, day 5 of treatment): 30.9 nmol/24 h | Urinary excretion, fraction of the administered dose ([3]; animal 3, day 5 of treatment): 3.5% | Urinary excretion ([3]; animal 3, day 7 of treatment): 62.4 nmol/24 h | Urinary excretion, fraction of the administered dose ([3]; animal 3, day 7 of treatment): 6.9% | Urinary excretion ([3]; animal 3, day 9 of treatment): 17.8 nmol/24 h | Urinary excretion, fraction of the administered dose ([3]; animal 3, day 9 of treatment): 2.0% | Urinary excretion ([3]; animal 3, day 11 of treatment): 33.6 nmol/24 h | Urinary excretion, fraction of the administered dose ([3]; animal 3, day 11 of treatment): 3.7% | Urinary excretion ([3]; animal 3, day 13 of treatment): 48.1 nmol/24 h | Urinary excretion, fraction of the administered dose ([3]; animal 3, day 13 of treatment): 5.3% | 24 h urinary excretion, % of the daily administered dose ([3]; range over the course of the study, OTA 2 mg/kg bw for 2 weeks (5 days/week)): 0.5–6.9% | Concentration in human urine following enzymatic hydrolysis as compared to without hydrolysis [4]: up to 6 fold | Urinary excretion, fraction of the administered dose ([5]; 2 weeks treatment, OTA 21 μg/kg bw per day oral): 1.9% | Urinary excretion ([5]; 2 weeks treatment, OTA 21 μg/kg bw per day oral, mean ± SD): 0.22 ± 0.03 nmol/24 h | Urinary excretion, fraction of the administered dose ([5]; 2 weeks treatment, OTA 70 μg/kg bw per day oral): 0.8% | Urinary excretion ([5]; 2 weeks treatment, OTA 70 μg/kg bw per day oral, mean ± SD): 0.32 ± 0.12 nmol/24 h | Urinary excretion, fraction of the administered dose ([5]; 2 weeks treatment, OTA 210 μg/kg bw per day oral): 1.2% | Urinary excretion ([5]; 2 weeks treatment, OTA 210 μg/kg bw per day oral, mean ± SD): 1.35 ± 0.36 nmol/24 h | Urinary excretion, fraction of the administered dose ([5]; 4 weeks treatment, OTA 70 μg/kg bw per day oral): 0.9% | Urinary excretion ([5]; 4 weeks treatment, OTA 70 μg/kg bw per day oral, mean ± SD): 0.51 ± 0.09 nmol/24 h | Urinary excretion, fraction of the administered dose [5, 6]: 4.6% | Urinary excretion [5, 6]: 5.86 nmol/24 h | Urinary excretion, fraction of the administered dose ([5]; 13 weeks treatment, OTA 21 μg/kg bw per day oral): 1.1% | Urinary excretion ([5]; 13 weeks treatment, OTA 21 μg/kg bw per day oral, mean ± SD): 0.18 ± 0.07 nmol/24 h | Urinary excretion, fraction of the administered dose ([5]; 13 weeks treatment, OTA 70 μg/kg bw per day oral): 1.9% | Urinary excretion ([5]; 13 weeks treatment, OTA 70 μg/kg bw per day oral, mean ± SD): 0.97 ± 0.36 nmol/24 h | Urinary excretion, fraction of the administered dose ([5]; 13 weeks treatment, OTA 210 μg/kg bw per day oral): 2.5% | Urinary excretion ([5]; 13 weeks treatment, OTA 210 μg/kg bw per day oral, mean ± SD): 3.88 ± 1.50 nmol/24 h | Fraction of the administered dose excreted in urine ([5]; range over 90-day study, OTA 21, 70 and 210 µg/kg (5 days/week)): 0.8 to 4.6%
